# Read-outs that look alike come from different tables or passages of the source.
# B1: L-asparaginase: antineoplastic drug from Roche; inhibition of protein biosynthesis (protein, UniProt P00805 23-348, looked up)
# L-asparaginase 2: LPNITILATGGTIAGGGDSATKSNYTVGKVGVENLVNAVPQLKDIANVKGEQVVNIGSQDMNDNVWLTLAKKINTDCDKTDGFVITHGTDTMEETAYFLDLTVKCDKPVVMVGAMRPSTSMSADGPFNLYNAVVTAADKASANRGVLVVMNDTVLDGRDVTKTNTTDVATFKSVNYGPLGYIHNGKIDYQRTPARKHTSDTPFDVSKLNELPKVGIVYNYANASDLPAKALVDAGYDGIVSAGVGNGNLYKSVFDTLATAAKTGTAVVRSSRVPTGATTQDAEVDDAKYGFVASGTLNPQKARVLLQLALTQTKDPQQIQQIFNQY
# How the values were obtained:
# [1] = system: CUTLL1 cells; test: Cell viability (MTT/colorimetric proliferation) assay; assay type: cell-based, human; conditions: for effect of γ-secretase inhibition on the apoptotic response triggered by the drug: CUTLL1, 100 nM CompE or vehicle, increasing drug concentrations
# Protocol: FIG. 1. GSIs reverse glucocorticoid resistance in T-ALL cells. (a-c). […] Statistical significance was assessed with Student's t-test.
# FIG. 7. Analysis of the effects of GSI treatment in chemotherapy response. Cell viability analysis in the CUTLL1 cells treated with 100 nM CompE or vehicle only in presence of increasing concentrations of etoposide, methotrexate, L-asparaginase and vincristine. Cell viability was analyzed by an MTT assay and cytotoxicity data was represented as percentage of viable cells compared with non-treated controls. Data are means±s.d. of triplicate experiments.
# Proliferation and cell size assays.
# [2] = system: KOPTK1 cells; test: Cell viability assay; assay type: cell-based, human
# Protocol: (§1) FIG. 1. […] (a-c). […] (e) Percentage of apoptotic cells (annexinV positive/PI negative) in CUTLL1 (72 hours), KOPTK1 (48 hours) and TALL1 cells (72 hours) treated with DMSO (control), CompE (100 nM), dexamethasone (1 μM) and dexamethasone (1 μM) plus CompE (100 nM). […] Data in (a-f) are means±standard deviation (s.d.) of triplicate experiments. Statistical significance was assessed with Student's t-test.
# (§2) Proliferation and cell size assays. Cell growth ratios were determined by a colorimetric assay using the Cell Proliferation Kit I (MU) (Roche) in cell lines treated with different antileukemic drugs in the presence or absence of CompE (100 nM). The range of concentrations used in these experiments was: dexamethasone (10^−10 to […]), etoposide (10^−10 to 10^−4 M), methotrexate (10^−10 to 10^−4 M), L-Asparaginase (10^−8 to 10^−2 g/l) and vincristine (10^−12 to 10^−6 M).
# [3] = system: TALL1 cells; test: Cell viability assay; assay type: cell-based, human
# Protocol: as §1, §2
# [4] = system: PARP cleavage; test: Western blot analysis of PARP cleavage in CUTLL1 cells; assay type: cell-based, human
# Protocol: as §1
# Western blot analysis. Antibodies against glucocorticoid receptor (E-20, Santa Cruz Biotechnology), BIM (Cell Signaling Technologies); BMF (BD Bioscience) and α-actin (C-11, Santa Cruz Biotechnology) were used in immunoblot assays following manufacturer instructions.
# [5] = system: NOTCH1 signaling; test: NOTCH1 signaling in CUTLL1 cells; assay type: cell-based, human; conditions: CUTLL1, CompE 72 hours
# [6] = system: CUTLL1 T-ALL xenografts; test: Subcutaneous xenograft model with in vivo bioimaging; design: species or system NOD/SCID mice; conditions: 4 days of daily i.p. treatment; dexamethasone 15 mg/kg, DBZ 10 μmol/kg
# Protocol: Subcutaneous xenograft model and in vivo imaging. […] For subcutaneous xenograft experiments, 2.5×10^6 T-ALL cells embedded in matrigel (BD Biosciences) were injected in the flank. After 1 week, mice were segregated into treatment groups (6 animals per group) and treated daily with vehicle (DMSO), dexamethasone (15 mg/kg), DBZ (10 μmol/kg) or dexamethasone (15 mg/kg) plus DBZ (10 μmol/kg) by intraperitoneal injection. For imaging studies, mice were anesthetized by isoflurane inhalation and injected with D-luciferin at 50 mg/Kg (Xenogen) intraperitoneally. Photonic emission was imaged with the In Vivo Imaging System (IVIS, Xenogen) with a collection time of 1 minute. Tumor bioluminescence was quantified by integrating the photonic flux (photons per second) through a region encircling each tumor as determined by the LIVING IMAGES software package (Xenogen).
# [7] = system: Klf4; test: Klf4 expression in small intestine of treated mice; assay type: in vivo
# Description: KLF4 regulation by NOTCH signaling in the gut. (a,b) Immunohistochemistry analysis of Klf4 expression in small intestine of mice treated with dexamethasone, DBZ or the combination of dexamethasone plus DBZ for 5 days. Scale bars represent 100 μm. (c) Real-time PCR analysis of Klf4 transcript levels in small intestine of mice treated with dexamethasone, DBZ or the combination of dexamethasone plus DBZ for 5 and 10 days. Gapdh levels were used as a reference control. Data are means±s.d. of three animals per group.
# Quantitative real-time PCR. […] Total RNA from mouse tissues was extracted using Trizol reagent (Invitrogen). cDNA was generated with the ThermoScript RT-PCR system (Invitrogen) and analyzed by quantitative real-time PCR using SYBR Green RT-PCR Core Reagents kit and the 7300 Real-Time PCR System (Applied Biosystems). Relative expression levels were normalized with GAPDH expression used as a reference control.
# Mouse toxicity model. To analyze the effects of GSI cotreatment with dexamethasone in healthy (non-leukemia-bearing) mice, we treated C57/Bl6 female animals (3 mice per group) daily with vehicle (DMSO), dexamethasone (15 mg/kg), DBZ (10 μmol/kg) and dexamethasone (15 mg/kg) plus DBZ (10 μmol/kg) by intraperitoneal injection for 5 and 10 days. […]
# [8] = Pharmacokinetic analysis of DBZ in mouse plasma; assay type: in vivo; conditions: DBZ 2 μmol/kg tail vein; mice pre-treated with dexamethasone 15 mg/kg for 5 days vs vehicle
# Protocol: Pharmacokinetic and drug metabolism studies. […] The concentration of DBZ in mouse plasma was determined using a standard curve (analyte peak area vs. concentration) generated with calibration standard pools.
# [9] = DBZ metabolism by liver microsomes in vitro; assay type: in vitro ADME, mouse; conditions: in the presence of dexamethasone vs vehicle, 37° C.
# Protocol: To analyze the effects of dexamethasone in the hepatic metabolism of DBZ, mouse liver microsomes (Xenotech) were incubated with DBZ or dexamethasone plus DBZ at 37° C. and DBZ concentrations were analyzed by LC/MS/MS mass spectrometry in samples taken at serial timepoints using a standard curve prepared in incubation buffer with heat inactivated liver microsomes.
# [10] = system: CUTLL1 cells expressing luciferase
# Protocol: Leukemia xenograft model. Before intravenous xenograft transplantation, recipient animals were irradiated with a total x-ray dose of 300 cGy. Two million CUTLL1 cells expressing luciferase were injected via the tail vein. After a 3-week window for tumor engraftment, mice with homogeneous tumor burdens were segregated into treatment groups (8 animals per group) and treated daily with vehicle (DMSO), dexamethasone (15 mg/kg), DBZ (10 μmol/kg) or dexamethasone (15 mg/kg) plus DBZ (10 μmol/kg) by intraperitoneal injection for 14 days. Disease progression/response was evaluated weekly using bioimaging as described above by integrating the photonic flux (photons per second) through a region around each mouse. Animals were followed up for up to 10 weeks. At the end of the observation period, single cell suspensions from the spleen of surviving animals were analyzed for the presence of leukemic cells by flow cytometry after staining with human anti-CD45-FITC (BD Biosciences).
# [11] = mouse, in vivo
# [12] = Mouse toxicity model (histology, immunohistochemistry, flow cytometry); conditions: 5 days of treatment
molecule,measurement,setting,value
C[C@H](NC(=O)Cc1cc(F)cc(F)c1)C(=O)N[C@H]1N=C(c2ccccc2)c2ccccc2N(C)C1=O [CompE],"cell response to CompE alone (cell cycle, apoptosis)","[1]; CUTLL1, 72 hours",modest cytostatic response characterized by G1 cell cycle arrest with little or no apoptosis
same,cell response to CompE treatment alone,[2],G1 cell cycle arrest
same,cell response to CompE treatment alone,[3],G1 cell cycle arrest
same,PARP cleavage (Western blot),[4]; CUTLL1,no significant increase in PARP cleavage
same,NOTCH1 signaling,[5],effectively blocks NOTCH1 signaling
Z-VAD,effect on PARP cleavage and apoptosis triggered by CompE plus dexamethasone,"[4]; CUTLL1, Western blot and annexin V-PI staining",reversed the induction of PARP cleavage and apoptosis
CC[C@]1(O)C[C@H]2CN(CCc3c([nH]c4ccccc34)[C@@](C(=O)OC)(c3cc4c(cc3OC)N(C=O)[C@H]3[C@@](O)(C(=O)OC)[C@H](OC(C)=O)[C@]5(CC)C=CCN6CC[C@]43[C@@H]65)C2)C1 [vincristine],effect of γ-secretase inhibition on the apoptotic response triggered by the drug,[1],did not influence the apoptotic responses
CN(Cc1cnc2nc(N)nc(N)c2n1)c1ccc(C(=O)N[C@@H](CCC(=O)O)C(=O)O)cc1 [methotrexate],effect of γ-secretase inhibition on the apoptotic response triggered by the drug,[1],did not influence the apoptotic responses
"C[C@H](NC(=O)Cc1cc(F)cc(F)c1)C(=O)NC1C(=O)N(C)c2ccccc2-c2ccccc21 (stereo partly drawn) [DBZ, (2S)-2-[2-(3,5-difluorophenyl)-acetylamino]-N-(5-methyl-6-oxo-6,7-dihydro-5H-dibenzo[b,d]azepin-7-yl)-propionamide]",tumor growth / tumor burden by bioimaging,[6],moderate delay in tumor growth
same,Klf4 expression by RT-PCR,[7]; 5 and 10 days,gradual increase of Klf4 expression
same,KLF4 expression by immunohistochemistry,[7]; 5 days,marked increased in KLF4 staining
same,clearance of DBZ in vivo,[8],reduced the clearance of DBZ
same,DBZ metabolism by liver microsomes,[9],decrease in DBZ metabolism
same,"toxicity in leukemia-bearing mice (mortality, weight loss)",[10]; daily i.p. for 14 days,accelerated mortality associated with weight loss due to GSI toxicity
same,survival,"[10]; end of the observation period (10 weeks), vs. controls",inferior outcome
same,histopathology of the gut after 5 days,[11],moderate secretory metaplasia with increased number of goblet cells
same,intestinal proliferation (Ki67 staining),[11],marked reduction in proliferation
same,spleen histology / cellularity,[11],disappearance of the marginal zone in the white pulp
same,thymus histology / cellularity,[11],thymic atrophy with loss of the lymphoid cells from the cortex
COc1cc([C@@H]2c3cc4c(cc3[C@@H](O[C@@H]3O[C@@H]5CO[C@@H](C)O[C@H]5[C@H](O)[C@H]3O)[C@H]3COC(=O)[C@H]23)OCO4)cc(OC)c1O [etoposide],effect of γ-secretase inhibition on the apoptotic response triggered by the drug,[1],did not influence the apoptotic responses
C[C@@H]1C[C@H]2[C@@H]3CCC4=CC(=O)C=C[C@]4(C)[C@@]3(F)[C@@H](O)C[C@]2(C)[C@@]1(O)C(=O)CO [dexamethasone],IC50,"[1]; Homo sapiens, CUTLL1 cells, 72 hours, dexamethasone in the presence of CompE (100 nM)",77 nM
same,spleen histology / cellularity,[12],moderate atrophy of the white pulp with preservation of the marginal zone and disorganization of the red pulp
same,thymus histology / cellularity,[12],thymic atrophy with loss of the lymphoid cells from the cortex
same,histopathology of the gut after 5 days,"[12]; small intestine, H&E and PAS",no histopathological changes in the gut
B1,effect of γ-secretase inhibition on the apoptotic response triggered by the drug,[1],did not influence the apoptotic responses

# From patent publication US8633179B2, “Synergistic interaction of NOTCH-1 inhibitors with glucocorticoids” (priority 2007, dated 2014)
